The subject of data set [1] is luciferase-expressing MOLM-13 cells. Description: MOLM13 xenograft study, 10 mg/kg. Format: in vivo, NCG mice. Particulars: 10 mg/kg oral gavage, three or five days per week, Days 7 and 14. How it is done: The effect of a representative disclosed compound, Cpd3, on in vivo tumor growth was assessed in a MOLM13 xenograft study. Briefly, male NCG (NOD-Prkdc^em26Cd52//2rg^em26Cd22/NjuCrl) mice (N=12 per group) were given an intravenous injection of 1×10^4 luciferase-expressing MOLM-13 cells. […] Therefore at 3 days post-engraftment (day 0 treatment), mice were injected with luciferin, imaged for leukemia burden, and began dosing with Cpd3 (10 mg/kg daily by oral gavage) or vehicle control (15% ethanol, 30% PEG-400 in PBS). Mice were treated on two different dosing schedules: Cpd3 three days per week (Mon, Wed and Fri) or five days per week (Mon through Fri). Mice on the Mon, Wed, Fri schedule received a vehicle on Tues and Thurs, so that all mice were consistently gavaged five days per week. In addition to day 0, mice were monitored once weekly (days 7 and 14 post-treatment) by IVIS imaging. In order to assess tumor burden, mice were injected with luciferin and imaged on an IVIS imager Days 0, 7, and 14. […] The data for tumor burden at Day 7 (FIG. 11B) and Day 14 (FIG. 11C) is summarized in bar graph format.

Data set [2] is described as follows: Pharmacokinetic study, single dose by IV, IP, PO. Format: in vivo, wild type B6 mice. Particulars: 10 mg/kg single dose; for AUC(0-t) / Tmax / bioavailability / half-life: B6, mouse, plasma; for Cmax: B6, mouse plasma. The text has this:
LC-MS/MS Assay Materials: Acetonitrile and methanol were LC-MS grade (Fisher Scientific (Fair Lawn, N.J., USA). Other chemicals were as follows: formic Acid (98%, v/v in water; Fisher Scientific, Fair Lawn, N.J., USA); ammonium acetate (Sigma Aldrich Inc.); water: DDH2O obtained from a Millipore water system; and brequinar was obtained from Sigma. (>99% purity). Solvent A: 0.1% formic acid in water. Solvent B: 0.1% Formic Acid in methanol and acetonitrile. Internal Standard (“IS”) precipitation solution was 150 ng/ml internal standards in acetonitrile: water (3:1, v/v).
Sample preparation: To 10 μL plasma sample was added 100 μL of working IS solution and 20 μL MeOH. Samples were then vortexed for 30 seconds, followed by centrifugation (Eppendorf 5415 R centrifuge) at 10,000 rpm for 8 minutes at 4° C. Supernatant of each sample was transferred into an autosampler vial and sealed with rubber/Teflon crimp cap. Sample volume that was injected onto HPLC was 5 μL. The calibrations samples were prepared at a test compound concentration of 1000, 500, 250, 100, 50, 10, 5 ng/mL in mouse plasma. The quality control samples were as follows: QC1=750 ng/mL, OC2=75 ng/mL, QC3=25 ng/mL, LLOQ=5 ng/mL.
HPLC Parameters: Accucore Vanquish C18 column (100×2.1 mm, dp=1.5 μm) used in a Vanquish UHPLC system, using a XBridge® BEH C18, 5-μm guard column. Mobile phase: gradient as provided below in Table 8 below. Column temperature: 40° C.±5° C.; Autosampler temperature: 10° C.±5° C. Flow rate: 0.4 ml/min. run time: 5.0 min.
The mass spectrometer used was a TSQ Quantiva (Thermo Fisher Scientific).
Briefly, wild type B6 mice were injected with a single dose (10 mg/kg) of Cpd3 by three different injection routes: oral gavage (PO), intravenous (IV) and intraperitoneal (IP) (N=4 per route). The vehicle used was 15% ethanol, 30% polyethylene glycol (PEG), and this same vehicle was used for each delivery route. Cpd3 was prepared as a 2.5 mg/mL concentration and delivered at 10 mg/kg (volume delivered in microliters was 4 times the weight of the mouse in grams). Blood plasma was sampled at time zero (0) and […] additional time points (15, 30 and 60 minutes, and 2, 6 and 24 hours), and the level of Cpd3 determined in mouse plasma by LC-MS/MS assay as described above. The data were used to calculate Cmax, Clast, Tmax, T1/2, AUC, and bioavailability for Cpd3 as appropriate for the route of administration.

For a further data set, the system named is THP1. Description: MTS cell proliferation assay, THP1. Format: cell-based. Particulars: Homo sapiens, THP-1, 96 hours. The protocol:
Triplicate wells were set up for each condition.
The assays were carried out in a blinded fashion.
A general note: Formazan colour is commonly taken as a measure of viable cells.

A further data set relates to primary human AML cells. Description: Cytospin slides and Wright-Giemsa staining for differentiation. Format: cell-based. The note with it: 1 μM, 14 days. The protocol:
Cytospin slides and Wright-Giemsa staining for differentiation: Primary AML cells were solubilized from the methocult in the CFU assays. 150-300K cells were immobilized onto microscope slides and stained with Wright-Giemsa stain. Differentiated myeloid cells were recognized by the typical morphological changes associated with early neutrophil differentiation including a characteristic multi-lobed or kidney bean shaped nucleus.
The primary AML cells following treatment with Cpd3 were analyzed by Wright-Giemsa stain. FIGS. 4A-4C show representative micrographs of primary human AML cells treated a representative disclosed compound, Cpd3, compared to a reference compound, brequinar, or vehicle treatment using methods as described herein below. Briefly, primary AML cells were treated with vehicle (DMSO), Cpd3 (1 μM) or brequinar (BQR, 1 μM) and plated in semi-solid methylcellulose-based media for 14 days. Cells were recovered from the methylcellulose and immobilized on glass slides and stained with a Wright-Giemsa stain (the more differentiated myeloid cells are indicated by the red arrows). The images are shown for vehicle treatment (FIG. 4A); Cpd3 treatment (FIG. 4B); and brequinar treatment (FIG. 4C). The primary human AML cells are from a representative patient sample. […]

As usually defined, the AUC(0-t) is the area under the concentration-time curve up to a stated or last time point. Higher therefore signals more exposure. The Tmax is the time from dosing to the highest level. A word on the bioavailability: it is dose-corrected exposure relative to a reference, in per cent. A higher bioavailability goes with good availability. One may read the half-life as the time needed for the level to fall by half in the phase considered. Low readings indicate rapid decline, high ones slow decline. A word on the Cmax: it is the maximum level reached in the sampled fluid or tissue. As usually defined, the IC50 is the concentration needed to halve the response being measured. Read a high IC50 as weaker potency in that assay. With `CCOc1ccc(-c2ccc(-c3cc(C(=O)O)c4cc(F)ccc4n3)cc2)cc1` [Cpd3, 2-(4′-ethoxy-[1,1′-biphenyl]-4-yl)-6-fluoroquinoline-4-carboxylic acid], the “tumor burden (luciferase expression by IVIS imaging)” value in data set [1] is “able to reduce the tumor burden in the mice”. In data set [2] (IP), the AUC(0-t) came to 120 ± 228 µg·h/mL, the Tmax stood at 0.31 ± 0.13 h, the bioavailability amounted to 89% and the half-life is 2.2 ± 0.11 h. In data set [2] (IP), the Cmax came out at 40200 ± 9300 ng/mL and the “Clast” value was 16 ± 7 ng/mL. Further, in data set [2] (IV), the AUC(0-t) turned out to be 134 ± 217 µg·h/mL, the half-life is 2.3 ± 0.19 h, the highest level (Cmax) was 36400 ± 14300 ng/mL and the “Clast” value was found to be 22 ± 16 ng/mL. Also, in data set [2] (PO), the AUC(0-t) is 425 ± 163 µg·h/mL, the Tmax was 0.5 h, the bioavailability is 32% and the half-life was 5.6 ± 1.95 h. Moreover, in data set [2] (PO), the peak level (Cmax) was 12200 ± 4300 ng/mL and the “Clast” value amounted to 310 ± 180 ng/mL. The same compound registered a half-maximal inhibitory concentration (IC50) in the data set with THP1 of 1.1 µM. Further, in the data set with primary human AML cells, the “differentiation by Wright-Giemsa stain” value is “induces differentiation in primary human AML cells”.

Values taken from US11999697B2, “Methods and compositions for inhibition of dihydroorotate dehydrogenase” (OHIO STATE INNOVATION FOUNDATION, priority 2018, dated 2024).
